Among the data in ChEMBL document CHEMBL1122819, “Quinazoline antifolates inhibiting thymidylate synthase: variation of the N10 substituent” (J Med Chem, 1985) are IC50 and Inhibition values, retold here.

One may read the Inhibition as how much of the control response was suppressed. A low value points to little suppression.

Each structure is given as a SMILES string.

Assay [1] has as its system L1210. The assay is described as follows: (§1) Growth inhibition was evaluated for L1210 cells in culture. The class given is functional. To be noted: Mus musculus, read-out: ID50 (the source's name).
Assay [2] concerns L1210. The assay is described as §1. The class given is functional, Mus musculus.

On to `Nc1nc(O)c2cc(CN(CC(=O)O)c3ccc(C(=O)NC(CCC(=O)O)C(=O)O)cc3)ccc2n1` (stereo not given), for which the IC50 in the assay on L1210 [1] is 27 µM. As to `Nc1nc(O)c2cc(CN(Cc3cccc(F)c3)c3ccc(C(=O)NC(CCC(=O)O)C(=O)O)cc3)ccc2n1` (stereo not given), the IC50 in the assay on L1210 [1] was more than 200 µM. Still for that read-out and setting: for `Nc1nc(O)c2cc(CN(CC(=O)c3ccccc3)c3ccc(C(=O)NC(CCC(=O)O)C(=O)O)cc3)ccc2n1` (stereo not given) the value was 100 µM; for `Nc1nc(O)c2cc(CN(Cc3cnc(O)nc3O)c3ccc(C(=O)NC(CCC(=O)O)C(=O)O)cc3)ccc2n1` (stereo not given), 5 µM. Turning to `N#CCCCN(Cc1ccc2nc(N)nc(O)c2c1)c1ccc(C(=O)NC(CCC(=O)O)C(=O)O)cc1` (stereo not given), in the assay on L1210 [2], the Inhibition stood at 10%. The IC50 in the assay on L1210 [1] is more than 300 µM.

Turning to `Nc1nc(O)c2cc(CN(CC3CC3)c3ccc(C(=O)NC(CCC(=O)O)C(=O)O)cc3)ccc2n1` (stereo not given), the IC50 with L1210 [1] was more than 100 µM. As for `CC(C)N(Cc1ccc2nc(N)nc(O)c2c1)c1ccc(C(=O)NC(CCC(=O)O)C(=O)O)cc1` (stereo not given), in the assay on L1210 [1], the IC50 was determined as 400 µM.

`Nc1nc(O)c2cc(CN(CCCO)c3ccc(C(=O)NC(CCC(=O)O)C(=O)O)cc3)ccc2n1` (stereo not given): the IC50 in the assay with L1210 [1] stood at 54 µM. `Nc1nc(O)c2cc(CN(CCF)c3ccc(C(=O)NC(CCC(=O)O)C(=O)O)cc3)ccc2n1` (stereo not given): the IC50 with L1210 [1] is 16 µM. In the case of `N#CCN(Cc1ccc2nc(N)nc(O)c2c1)c1ccc(C(=O)NC(CCC(=O)O)C(=O)O)cc1` (stereo not given), in the assay on L1210 [1], the IC50 came out at 5 µM. Still for that read-out and setting: for `NC(=O)CN(Cc1ccc2nc(N)nc(O)c2c1)c1ccc(C(=O)NC(CCC(=O)O)C(=O)O)cc1` (stereo not given) the value was 87 µM; for `Nc1nc(O)c2cc(CN(CCC(=O)O)c3ccc(C(=O)NC(CCC(=O)O)C(=O)O)cc3)ccc2n1` (stereo not given), more than 270 µM. Same read-out and setting: next, `C#CCN(Cc1ccc2[nH]c(N)nc(=O)c2c1)c1ccc(C(=O)NC(CCC(=O)O)C(=O)O)cc1` (stereo not given): 5 µM; `Nc1nc(O)c2cc(CNc3ccc(C(=O)NC(CCC(=O)O)C(=O)O)cc3)ccc2n1` (stereo not given) [DIDEAZAFOLATE]: 5 µM.
